Source: US12473324B2, “Triazine-based amphiphilic compound and use thereof” (INDUSTRY-UNIVERSITY COOPERATION FOUNDATION HANYANG …, priority 2019, dated 2025)

Assays:
Type in all cases: physicochemical
[1] = Solubility of detergent (Table 1)
[2] = Critical micelle concentration (CMC) by fluorescent dye diphenylhexatriene (DPH); settings: DPH fluorescence
Method: A method of measuring the CMC is not particularly limited, but a method widely known in the art may be used, and for example, the CMC may be measured by a fluorescent staining method using diphenylhexatriene (DPH).
(§1) Specifically, the critical micelle concentrations (CMCs) were measured using a fluorescent dye, diphenylhexatriene (DPH), and the hydrodynamic radii (Rh) of micelles formed by each preparation (1.0 wt %) were determined by a dynamic light scattering (DLS) experiment. The measured results are shown in Table 1 compared to DDM which is an existing amphiphilic molecule (detergent).

[3] = Hydrodynamic radius (Rh) of micelles by dynamic light scattering (DLS); settings: 1.0 wt % detergent
Method: A method of measuring the radius of micelle is not particularly limited, but a method widely known in the art may be used, and for example, the radius of micelle may be measured using a dynamic light scattering (DLS) experiment.
as §1

Structure (SMILES) | solubility [1] [%] | CMC [2] [mM] | Rh (nm) [3] [nm]
CCCCCCCCCCCOc1nc(OCCCCCCCCCCC)nc(N(CCO[C@@H]2O[C@H](CO)[C@@H](O[C@H]3O[C@H](CO)[C@@H](O)[C@H](O)[C@H]3O)[C@H](O)[C@H]2O)CCO[C@@H]2O[C@H](CO)[C@@H](O[C@H]3O[C@H](CO)[C@@H](O)[C@H](O)[C@H]3O)[C@H](O)[C@H]2O)n1 [TEM-E11] | ~1 | ~0.001 | 25.2 ± 1.2
CCCCCCCCCCCSc1nc(SCCCCCCCCCCC)nc(N(CCO[C@@H]2O[C@H](CO)[C@@H](O[C@H]3O[C@H](CO)[C@@H](O)[C@H](O)[C@H]3O)[C@H](O)[C@H]2O)CCO[C@@H]2O[C@H](CO)[C@@H](O[C@H]3O[C@H](CO)[C@@H](O)[C@H](O)[C@H]3O)[C@H](O)[C@H]2O)n1 [TEM-T11] | ~1 | ~0.001 | 31.8 ± 0.3
CCCCCCCOc1nc(NC(CO[C@@H]2O[C@H](CO)[C@@H](O[C@H]3O[C@H](CO)[C@@H](O)[C@H](O)[C@H]3O)[C@H](O)[C@H]2O)CO[C@@H]2O[C@H](CO)[C@@H](O[C@H]3O[C@H](CO)[C@@H](O)[C@H](O)[C@H]3O)[C@H](O)[C@H]2O)nc(OCCCCCCC)n1 [TSM-E7] | ~10 | ~0.04 | 3.4 ± 0.1
CCCCCCCCCOc1nc(NC(CO[C@@H]2O[C@H](CO)[C@@H](O[C@H]3O[C@H](CO)[C@@H](O)[C@H](O)[C@H]3O)[C@H](O)[C@H]2O)CO[C@@H]2O[C@H](CO)[C@@H](O[C@H]3O[C@H](CO)[C@@H](O)[C@H](O)[C@H]3O)[C@H](O)[C@H]2O)nc(OCCCCCCCCC)n1 [TSM-E9] | ~10 | ~0.01 | 4.0 ± 0.1
CCCCCCCCCCCSc1nc(NC(CO[C@@H]2O[C@H](CO)[C@@H](O[C@H]3O[C@H](CO)[C@@H](O)[C@H](O)[C@H]3O)[C@H](O)[C@H]2O)CO[C@@H]2O[C@H](CO)[C@@H](O[C@H]3O[C@H](CO)[C@@H](O)[C@H](O)[C@H]3O)[C@H](O)[C@H]2O)nc(SCCCCCCCCCCC)n1 [TSM-T11] | ~1 | ~0.001 | 94.8 ± 45
CCCCCCCCNc1nc(NCCCCCCCC)nc(NC(CO[C@@H]2O[C@H](CO)[C@@H](O)[C@H](O)[C@H]2O)(CO[C@@H]2O[C@H](CO)[C@@H](O)[C@H](O)[C@H]2O)CO[C@@H]2O[C@H](CO)[C@@H](O)[C@H](O)[C@H]2O)n1 [TTG-A8] | ~10 | ~0.6 | 2.1 ± 0.56
CCCCCCCCCNc1nc(NCCCCCCCCC)nc(NC(CO[C@@H]2O[C@H](CO)[C@@H](O)[C@H](O)[C@H]2O)(CO[C@@H]2O[C@H](CO)[C@@H](O)[C@H](O)[C@H]2O)CO[C@@H]2O[C@H](CO)[C@@H](O)[C@H](O)[C@H]2O)n1 [TTG-A9] | ~10 | ~0.5 | 2.2 ± 0.20
CCCCCCCCCCNc1nc(NCCCCCCCCCC)nc(NC(CO[C@@H]2O[C@H](CO)[C@@H](O)[C@H](O)[C@H]2O)(CO[C@@H]2O[C@H](CO)[C@@H](O)[C@H](O)[C@H]2O)CO[C@@H]2O[C@H](CO)[C@@H](O)[C@H](O)[C@H]2O)n1 [TTG-A10] | ~10 | ~0.3 | 2.3 ± 0.14
CCCCCCCCCCCNc1nc(NCCCCCCCCCCC)nc(NC(CO[C@@H]2O[C@H](CO)[C@@H](O)[C@H](O)[C@H]2O)(CO[C@@H]2O[C@H](CO)[C@@H](O)[C@H](O)[C@H]2O)CO[C@@H]2O[C@H](CO)[C@@H](O)[C@H](O)[C@H]2O)n1 [TTG-A11] | ~10 | ~0.2 | 2.4 ± 0.11
CCCCCCCCCCCCNc1nc(NCCCCCCCCCCCC)nc(NC(CO[C@@H]2O[C@H](CO)[C@@H](O)[C@H](O)[C@H]2O)(CO[C@@H]2O[C@H](CO)[C@@H](O)[C@H](O)[C@H]2O)CO[C@@H]2O[C@H](CO)[C@@H](O)[C@H](O)[C@H]2O)n1 [TTG-A12] | ~5 | ~0.04 | 2.5 ± 0.07
CCCCCCCCCCCCCCNc1nc(NCCCCCCCCCCCCCC)nc(NC(CO[C@@H]2O[C@H](CO)[C@@H](O)[C@H](O)[C@H]2O)(CO[C@@H]2O[C@H](CO)[C@@H](O)[C@H](O)[C@H]2O)CO[C@@H]2O[C@H](CO)[C@@H](O)[C@H](O)[C@H]2O)n1 [TTG-A14] | ~1 | ~0.008 | 3.2 ± 0.05
CCCCCCCSc1nc(NC(CO[C@@H]2O[C@H](CO)[C@@H](O)[C@H](O)[C@H]2O)(CO[C@@H]2O[C@H](CO)[C@@H](O)[C@H](O)[C@H]2O)CO[C@@H]2O[C@H](CO)[C@@H](O)[C@H](O)[C@H]2O)nc(SCCCCCCC)n1 [TTG-T7] | ~10 | ~0.02 | 2.8 ± 0.16
CCCCCCCCSc1nc(NC(CO[C@@H]2O[C@H](CO)[C@@H](O)[C@H](O)[C@H]2O)(CO[C@@H]2O[C@H](CO)[C@@H](O)[C@H](O)[C@H]2O)CO[C@@H]2O[C@H](CO)[C@@H](O)[C@H](O)[C@H]2O)nc(SCCCCCCCC)n1 [TTG-T8] | ~10 | ~0.015 | 2.9 ± 0.09
